Results published in PMC4157036, “Does Long-Term Administration of a Beta-Blocker (Timolol) Induce Fibril-Based Cataract Formation In-vivo?” (Iranian Journal of Pharmaceutical Research : IJPR, 2014).

Molecular target: T1, bovine α-crystallin (Bos taurus, UniProt P02470+P02510)
T1 construct: gene CRYAA; native hetero-oligomer purified from bovine lenses (cows under two years), mixture of alphaA and alphaB subunits at about 3:1; no tag
T1 sequence (P02470 1-173): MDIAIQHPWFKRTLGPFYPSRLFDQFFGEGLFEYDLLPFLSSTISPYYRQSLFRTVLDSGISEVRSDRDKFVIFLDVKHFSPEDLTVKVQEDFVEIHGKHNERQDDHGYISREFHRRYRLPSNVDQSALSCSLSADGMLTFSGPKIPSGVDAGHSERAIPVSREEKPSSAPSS
T1 sequence (P02510 1-175): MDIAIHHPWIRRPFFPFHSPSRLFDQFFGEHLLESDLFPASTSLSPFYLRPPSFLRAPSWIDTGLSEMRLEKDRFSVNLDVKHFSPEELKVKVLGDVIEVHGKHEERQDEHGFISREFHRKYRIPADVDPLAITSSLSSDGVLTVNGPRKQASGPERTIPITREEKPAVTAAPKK
Assay: turbidity at […] nm of GdnHCl-induced aggregation at […] °C
Settings: 5 µM timolol, protein 0.6 mg/mL, 0.1 M phosphate pH 7.4, 60 °C, enhancer of aggregation, direct binding not measured

aggregation extent (fold): ~ 3 fold
Structure (SMILES): CC(C)(C)NC[C@H](O)COc1nsnc1N1CCOCC1 [timolol]
